Measured values taken from patent US20260327193A1, “INHIBITORS OF PLASMA KALLIKREIN” (Rezolute, Inc., priority 2022, published 2026).

Tests used:
[1] = Caco-2 permeability assay; format: in vitro ADME; settings: human, 10 μM test compound, pH 7.4, 37° C., 120 minutes, direction of the value not given, read-out: Caco-2 Perm
Protocol: Permeability Assay. A permeability study was conducted using Caco-2 cells (ECACC Cat. no. 09042001) seeded on cell inserts plate (Millicell, Cat #PSHT010R^5) at a density of 80,000 cells per well, and the cells were maintained for 18-21 days in culture medium (1×DMEM with 10% FBS, 0.1 mg/mL Penicillin/Streptomycin). The culture medium was changed every alternate day. Prior to the experiments, the integrity of the cellular monolayer was evaluated by measuring the TEER value using a volt ohm meter and STX100C96 electrode. Only monolayers with TEER values greater than 800 ohm·cm^2 in buffer after the first wash were used.
An assay buffer (HBSS with Ca+2 and Mg+2 buffered with 10 mM HEPES and 25 mM D-Glucose, pH-7.4) was used on apical side as well as on basolateral side.
An intermediate stock solution of a test compound was prepared in DMSO at a concentration of 1 mM in DMSO. This stock solution was spiked in the assay buffer to achieve a target test compound concentration of 10 μM. The organic content of final drug preparation was 1.0% v/v. The bidirectional permeability experiment was done in singlet and the sample analysis was done in duplicate.
The cultured cell monolayer was washed twice with assay buffer (0.4 mL and 0.8 mL was added to the apical and basolateral sides, respectively, of the culture plate), and then buffers from both compartments were discarded.
For the apical to basal (AP>BL) experiment, aliquots of 0.4 mL donor solution (assay buffer, pH 7.4 containing test compound) and 0.8 mL of receiver solutions (assay buffer, pH 7.4, only) were added to the apical and basolateral compartments, respectively. For the basal to apical (BL>AP) experiment, aliquots of 0.8 mL donor solution (assay buffer pH-7.4 containing test compound) and 0.4 mL of receiver solutions (assay buffer, pH-7.4) were added to the basolateral and apical compartments, respectively. The plate was then kept in an incubator at 37° C. for 120 minutes.
Control experiments with Propranolol (High Permeability), Atenolol (Low Permeability), Digoxin (High Efflux-Pgp substrate), and Digoxin+Verapamil (Pgp Inhibitor) in both directions (AP>BL and BL>AP) were performed in separate wells on the same experiment day.
After the completion of the transport experiment, the integrity of the cell monolayer was evaluated by measuring the Lucifer Yellow (LY) rejection. To do this, 400 μL of 10 μM LY was added to each well of the filter plate and incubated for 1 hour at 37° C. Subsequently, the samples were collected from the basolateral compartments, and the LY fluorescence was measured using an excitation wavelength of 485 nm and an emission wavelength of 530 nm. The percent LY rejection across the cell monolayer was calculated by measuring fluorescence in the receiver plate (basolateral compartment) compared to theoretical equilibrium standard.
The study samples (collected from apical and basolateral compartments after 120 min incubation) were analyzed by LCMS/MS, following which the Papp of the compound(s) was calculated in both apical to basal and basal to apical directions. Papp=([DBL]×VBL)/(A×t×[DAP]) where: [DBL]=final drug concentration on the basolateral side, VBL=volume of the basolateral compartment, A=surface area of the cell culture, t=total incubation time, and [DAP]=initial drug concentration on the apical side.

Plasma Kallikrein [2] = biological target: T1, Plasma Kallikrein (Homo sapiens, UniProt P03952); assay: Plasma kallikrein activity in pooled human plasma; format: biochemical; parameters: Plasma Kallikrein activity was also measured in pooled human plasma; from tissue; host or cells: pooled human plasma; settings: Z-FR-AMC substrate, activated with 10% Actin FS solution, 10 minutes, read-out: Pooled Human Plasma PKal IC50
T1 sequence (P03952 391-638 limits assumed): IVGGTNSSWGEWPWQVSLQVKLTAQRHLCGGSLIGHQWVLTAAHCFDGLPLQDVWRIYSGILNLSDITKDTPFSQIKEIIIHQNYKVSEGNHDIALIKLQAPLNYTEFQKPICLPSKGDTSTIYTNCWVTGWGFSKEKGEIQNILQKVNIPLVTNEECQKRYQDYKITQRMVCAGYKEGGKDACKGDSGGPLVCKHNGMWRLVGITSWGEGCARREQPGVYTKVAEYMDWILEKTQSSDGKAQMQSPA
T1 sequence (P03952 20-390 partner limits assumed): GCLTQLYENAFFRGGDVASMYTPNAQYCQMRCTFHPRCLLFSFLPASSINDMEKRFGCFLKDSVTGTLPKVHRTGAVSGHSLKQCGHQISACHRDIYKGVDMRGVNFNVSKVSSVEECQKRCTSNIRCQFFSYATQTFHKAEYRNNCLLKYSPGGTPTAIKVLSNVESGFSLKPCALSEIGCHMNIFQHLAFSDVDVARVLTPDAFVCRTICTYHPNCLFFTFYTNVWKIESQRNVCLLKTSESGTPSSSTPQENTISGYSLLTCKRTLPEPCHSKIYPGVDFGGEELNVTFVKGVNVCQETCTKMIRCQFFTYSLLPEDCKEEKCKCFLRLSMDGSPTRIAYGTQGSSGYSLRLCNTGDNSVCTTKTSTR
Protocol: (§1) Plasma kallikrein protease inhibition assay. Two methods for determining the IC50 of a test compound against Plasma Kallikrein are provided.
Second, Plasma Kallikrein activity was also measured in pooled human plasma. First, a 10% Actin FS solution was prepared in assay buffer. Each test compound was dissolved in DMSO and delivered to the reaction mixture along with Z-FR-AMC substrate and pooled human plasma. The multi-well reaction plate was incubated for five minutes at room temperature. To initiate the reaction, the 10% Actin FS solution was added to each well, and kinetic measurements were taken at Ex/Em at 355/460 nm. The fluorescence signal was recorded every 30 seconds for a total of 10 minutes.

Plasma Kallikrein [3] = biological target: T1, Plasma Kallikrein; assay: Plasma kallikrein protease inhibition assay, purified enzyme; format: biochemical; parameters: NS0-derived Gly20-Ala638, with a C-terminal 60-His tag; 60-His (so in the source) (C); purchased R&D Systems 2497-SE; host or cells: Mouse myeloma cell line, NS0; settings: 10 μM Z-FR-AMC substrate, 20-minute pre-incubation, pH 8.0/8.5, room temperature, read-out: Purified PKal IC50
Protocol: as §1
In the first method was used a reaction buffer composed of 25 mM Tris-HCl (pH 8.0), 100 mM NaCl (pH 8.5), 0.01% Brij35, and 1% DMSO (final). The enzyme used was Plasma Kallikrein (R&D Systems Cat #2497-SE; Recombinant Human Plasma Kallikrein, expressed in Mouse myeloma cell line, NS0-derived Gly20-Ala638, with a C-terminal 60-His tag. MW=70 kDa).
The enzyme was activated by dilution to 200 μg/mL in activation buffer (100 mM Tris, 10 mM CaCl2, 150 mM NaCl, pH 7.5 (TCN), and then combined with an equal volume of 20 μg/mL thermolysin to form a reaction buffer. Each test compound was then dissolved in DMSO and delivered into the reaction buffer. The reaction was initiated by delivering a substrate solution containing 10 μM Z-FR-AMC (Enzo Cat #P-139; AMC: 7-Amino-4-methylcoumarin) into the reaction well after a 20-minute pre-incubation period.
Measurement was conducted with En Vision (PE) with excitation and emission wavelengths of 355 nm and 460 nm, respectively. […]. The enzyme activities were monitored every 5 minutes as a time-course measurement of the increase in signal from fluorescently labeled peptide substrate for 120 minutes at room temperature.
Data was analyzed by taking slope*(signal/time) of the linear portion of measurements. Slope was calculated using Excel, and curve fits were performed using Prism software.

Row | SMILES | Papp at 2 h, 10 µM [1] | IC50 (Plasma Kallikrein [2]) | IC50 (Plasma Kallikrein [3])
1 | N#CCc1ccc(Cn2cc(C(=O)NCc3ccc(C(=N)N)cc3)cn2)cc1 [Example 1, N-(4-carbamimidoylbenzyl)-1-(4-(cyanomethyl)benzyl)-1H-pyrazole-4-carboxamide] | < 2 ×10⁻⁶ cm/s | < 100 nM | < 1 nM
2 | N#CCCc1ccc(Cn2cc(C(=O)NCc3ccc(C(=N)N)cc3)cn2)cc1 [Example 3, N-(4-carbamimidoylbenzyl)-1-(4-(2-cyanoethyl)benzyl)-1H-pyrazole-4-carboxamide] | < 2 ×10⁻⁶ cm/s | < 100 nM | < 1 nM
3 | N#CCCc1ccc(Cn2cnc(C(=O)NCc3ccc(C(=N)N)cc3)c2)cc1 [Example 4, N-(4-carbamimidoylbenzyl)-1-(4-(2-cyanoethyl)benzyl)-1H-imidazole-4-carboxamide] | < 2 ×10⁻⁶ cm/s | – | < 1 nM
4 | CC(C)(C#N)c1ccc(Cn2cc(C(=O)NCc3ccc(C(=N)N)cc3)cn2)cc1 [Example 7, N-(4-carbamimidoylbenzyl)-1-(4-(2-cyanopropan-2-yl)benzyl)-1H-pyrazole-4-carboxamide] | < 2 ×10⁻⁶ cm/s | < 100 nM | < 1 nM
5 | CC(C)(C#N)c1ccc(Cn2cnc(C(=O)NCc3ccc(C(=N)N)cc3)c2)cc1 [Example 8, N-(4-carbamimidoylbenzyl)-1-(4-(2-cyanopropan-2-yl)benzyl)-1H-imidazole-4-carboxamide] | < 2 ×10⁻⁶ cm/s | – | 1 to 10 nM
6 | N#CCc1ccc(Cn2cnc(C(=O)NCc3ccc(C(=N)N)cc3)c2)cc1 [Example 9, N-(4-carbamimidoylbenzyl)-1-(4-(cyanomethyl)benzyl)-1H-imidazole-4-carboxamide] | 2 to 10 ×10⁻⁶ cm/s | – | 1 to 10 nM
7 | COCCc1ccc(Cn2cc(C(=O)NCc3ccc(C(=N)N)cc3)cn2)cc1 [Example 15, N-(4-carbamimidoylbenzyl)-1-(4-(2-methoxyethyl)benzyl)-1H-pyrazole-4-carboxamide] | 2 to 10 ×10⁻⁶ cm/s | < 100 nM | < 1 nM
8 | N=C(N)c1ccc(CNC(=O)c2cnn(Cc3ccc(CC(N)=O)cc3)c2)cc1 [Example 18, 1-(4-(2-amino-2-oxoethyl)benzyl)-N-(4-carbamimidoylbenzyl)-1H-pyrazole-4-carboxamide] | < 2 ×10⁻⁶ cm/s | – | 1 to 10 nM
9 | CNC(=O)Cc1ccc(Cn2cc(C(=O)NCc3ccc(C(=N)N)cc3)cn2)cc1 [Example 19, N-(4-carbamimidoylbenzyl)-1-(4-(2-(methylamino)-2-oxoethyl)benzyl)-1H-pyrazole-4-carboxamide] | < 2 ×10⁻⁶ cm/s | < 100 nM | < 1 nM
10 | N#Cc1ccn(Cc2ccc(Cn3cc(C(=O)NCc4ccc(C(=N)N)cc4)cn3)cc2)c1 [Example 26, N-(4-carbamimidoylbenzyl)-1-(4-((3-cyano-1H-pyrrol-1-yl)methyl)benzyl)-1H-pyrazole-4-carboxamide] | < 2 ×10⁻⁶ cm/s | < 100 nM | < 1 nM
11 | N#Cc1cccc(Cc2ccc(Cn3cc(C(=O)NCc4ccc(C(=N)N)cc4)cn3)cc2)c1 [Example 28, N-(4-carbamimidoylbenzyl)-1-(4-(3-cyanobenzyl)benzyl)-1H-pyrazole-4-carboxamide] | < 2 ×10⁻⁶ cm/s | < 100 nM | < 1 nM

Results, then the compound that gave them:

Row | Papp at 2 h, 10 µM [1] | IC50 (Plasma Kallikrein [2]) | IC50 (Plasma Kallikrein [3]) | SMILES
12 | < 2 ×10⁻⁶ cm/s | < 100 nM | < 1 nM | CN(C)C(=O)Cc1ccc(Cn2cc(C(=O)NCc3ccc(C(=N)N)cc3)cn2)cc1 [Example 33, N-(4-carbamimidoylbenzyl)-1-(4-(2-(dimethylamino)-2-oxoethyl)benzyl)-1H-pyrazole-4-carboxamide]
13 | < 2 ×10⁻⁶ cm/s | < 100 nM | 1 to 10 nM | CC(C)(C#N)c1ccc(Cn2cc(C(=O)NCc3ccc(C(=N)N)c(F)c3)cn2)cc1 [Example 43, N-(4-carbamimidoyl-3-fluorobenzyl)-1-(4-(2-cyanopropan-2-yl)benzyl)-1H-pyrazole-4-carboxamide]
14 | 2 to 10 ×10⁻⁶ cm/s | < 100 nM | < 1 nM | CC(C)(C#N)c1ccc(Cn2cc(C(=O)NCc3ccc(C(=N)N)cc3F)cn2)cc1 [Example 45, N-(4-carbamimidoyl-2-fluorobenzyl)-1-(4-(2-cyanopropan-2-yl)benzyl)-1H-pyrazole-4-carboxamide]
15 | < 2 ×10⁻⁶ cm/s | 100 to 1000 nM | 10 to 100 nM | COc1cc(CNC(=O)c2cnn(Cc3ccc(C(C)(C)C#N)cc3)c2)cc(F)c1C(=N)N [Example 48, N-(4-carbamimidoyl-3-fluoro-5-methoxybenzyl)-1-(4-(2-cyanopropan-2-yl)benzyl)-1H-pyrazole-4-carboxamide]
16 | < 2 ×10⁻⁶ cm/s | 100 to 1000 nM | < 1 nM | N#Cc1cccc(Cc2ccc(Cn3cc(C(=O)NCc4ccc(C(=N)N)c(F)c4)cn3)cc2)c1 [Example 49, N-(4-carbamimidoyl-3-fluorobenzyl)-1-(4-(3-cyanobenzyl)benzyl)-1H-pyrazole-4-carboxamide]
17 | < 2 ×10⁻⁶ cm/s | < 100 nM | < 1 nM | N#Cc1cccc(Cc2ccc(Cn3cc(C(=O)NCc4ccc(C(=N)N)cc4F)cn3)cc2)c1 [Example 50, N-(4-carbamimidoyl-2-fluorobenzyl)-1-(4-(3-cyanobenzyl)benzyl)-1H-pyrazole-4-carboxamide]
18 | < 2 ×10⁻⁶ cm/s | < 100 nM | 10 to 100 nM | COCCc1ccc(Cn2ncc(C(=O)NCc3ccc(C(=N)N)cc3)c2COC)cc1 [Example 87, N-(4-carbamimidoylbenzyl)-1-(4-(2-methoxyethyl)benzyl)-5-(methoxymethyl)-1H-pyrazole-4-carboxamide]
